Experiments:
[1] = tested on: TM4SF5-expressing cells (SNU449T7); assay: Western blotting for signaling factors whose phosphorylation increases in a TM4SF5-expression dependent manner; type: cell-based, human; conditions: for phosphorylation of FAK, STAT3, c-Src, S6K1, Akt, and p27 / phosphorylation of FAK, c-Src, STAT3, p27, S6K1, and AKT: given concentrations; for phosphorylation of FAK, c-Src, STAT3, p27, S6K1, AKT, and STAT5: 24 hours (FIG. 9a-b)
Experimental: Cell extracts were obtained from cells grown to a density of 70-80% without any treatment, or from cells treated with vehicle DMSO or drugs at the given concentrations for 24 hours. For the extract of hepatocytes or liver cancer cells, a lysis buffer (150 mM NaCl, 1% NP-40, 50 mM Tris-HCl, 0.25% sodium deoxycholate, pH 7.4) including a protease inhibitor cocktail (GenDEPOT) was used. In addition, after washing animal liver tissue twice with PBS, SDS, Na3VO4, and protease inhibitor cocktails (GenDEPOT) were added to a lysis buffer [50 mM Tris-HCl, pH 7.4, 1% NP40, 0.25% sodium deoxycholate, 150 mM NaCl, 1 mM EDTA (based on 500 ml)], followed by treatment at 4°C for 15 minutes. After centrifugation at 13,000 rpm at 4°C for 30 minutes, only the supernatant was transferred to a new microcentrifuge tube. After quantification using BCA reagent (Thermo Scientific), a 4 × sample buffer [100% glycerol 4 ml, Tris-HCl, pH 6.8, 2.4 ml, SDS 0.8 g, Bromophenol blue 4 mg, betamercaptoethanol 0.4 ml, H2O 3.1 ml (based on 10 ml)] was added, followed by boiling at 100°C for 5 minutes. After performing SDS-PAGE electrophoresis with the above samples and transferring them to Nitrocellulose Membranes Protran™ nitrocellulose membranes (Whatman), pre-treatment was performed with 5% skim milk for 1 hour. After pre-treatment, primary antibodies of p-FAK(Y861) (SC-16663), p-FAK(Y577) (SC-16665), c-Src (SC-8056), STAT3 (SC-8019), p-AKT 1/2/3(S473) (SC-7985), STATS (SC-835), Laminin γ2 (SC-393225), COL1A1 (SC-28657), CCL5(RANTES) (SC-514019) CCL20(MIP-3α) (SC-517441), SIRT1 (SC-74465), ChREBP (SC-515922), SREBP1 (SC-366513), DGAT1 (SC-271934), DGAT2 (SC-293211), MICA/B (SC-137242), SLAMF7 (SC-390840), α-tublin (SC-5286), β-actin (SC-47778), FUCA (SC-365496) (the above from Santa Cruz Biotech, USA), p-FAK(Y397) (cat # 611723), FAK (cat # 610088), p27 (cat # 610242) (the above from BD Transduction, USA), p-FAK(Y925) (#3284) p-c-Src(Y416) (#2101), p-STAT3(Y705) (#9145), p70S6K1 (#9202), p-p70S6K1(T389) (#9205), p-STAT5(Y694) (#9314), ACC (#3676), FASN (#3189), CPT1A (#12252), p-ACC(S79) (#11818), HA (#3724), PD-L1 (#13684), PD-1 (#86163), p-ERK1/2(T202/Y204) (#9101s), ERK1/2 (#9102s) (the above from Cell Signaling Tech., USA), pS10p27(S10) (ab62364), human SLAMF6 (ab224201), TIGIT (ab233404), CD34 (ab81289) (the above from Abcam, UK), mouse SLAMF6 (PA5-87823), NKG2D (PA5-102038) (the above from Thermofisher, USA), α-SMA (Sigma Aldrich, A5228), CCL2 (Invitrogen, MA5-17040), and CD155(PVR) (Biolegend, 337601), HA (Biolegend, USA), Strep-HRP(horse-radish peroxidase), StrepMAB-HRP (IBA, USA), AFP (FineTest, FNab00203) were reacted at 4°C for 15 hours. The next day, secondary antibodies were reacted, and development was performed on X-ray film using ECL (Pierce, USA). Anti-TM4SF5C-ter (epitope region of RKKQDTPH^197) and anti-TM4SF5EC2 (CLMNGEWGYHFEDTAGA^130) were custom-made at a professional antibody production company (Pro-Sci, Poway, CA, USA).
Cell extracts were obtained before and after treating TM4SF5-non-expressing cells (SNU449Cp) and TM4SF5-expressing cells (SNU449T7) with ST-1-024 or ST-1-025 drugs at the given concentrations for 24 hours, and Western blotting was performed for signaling factors whose phosphorylation and activity increase in a TM4SF5-expression dependent manner.
(a) Cell extracts were obtained after treating TM4SF5-non-expressing cells (SNU449Cp) and TM4SF5-expressing cells (SNU449T7) with vehicle (DMSO), TSAHC, or isoxazole compounds ST-2-001, ST-2-002, ST-2-003, ST-2-004, ST-2-005, ST-2-006, ST-2-007, ST-2-008, ST-2-009, ST-2-010, or ST-2-011 at a dose of 5 µM (for 24 hours). Using these, Western blotting was performed for signaling factors whose phosphorylation and activity increase in a TM4SF5-expression dependent manner. […]

[2] = tested on: TM4SF5-expressing cells (SNU449T7); assay: 3D sphere growth/proliferation; type: cell-based, human; conditions: for survival/proliferation of the spheres: given concentrations on the 0, 3, 6, and 9th days, observed 10th day (FIG. 12b-c); for degree of cell proliferation (spheres): 2.5 µM on the 0 and 3rd days, observed 6th day (FIG. 5b); for cell proliferation inhibitory effect: 0.5 or 2.5 µM (FIG. 10a, b), comparison among drugs
Experimental: TM4SF5-non-expressing cells (SNU449Cp) and TM4SF5-expressing cells (SNU449T7) of the same number (200 cells/well or 1000 cells/well) were added per well into Costar Ultra-Low Attachment Multiple Well Plates (CORNING), and were then treated with vehicle (DMSO) or drugs at various concentrations and cultured in a cell incubator under conditions of 37°C and 5% CO2. After repeatedly treating with the same concentrations of drugs every few days at regular intervals as indicated from the date of cell culture, the proliferation of the cells (spheres) was observed and photographed using an optical microscope on the last day of observation.
The drugs treated were the positive control drug TSAHC or the ST-1-025 isoxazole compound at the given concentrations. From the time of starting culture (0 day), (FIG. 3a) in the case of 2D culture, the number of cells was measured after treating with the drug every 24 hours, or (FIG. 3b) in a 3D environment, the proliferation of cells (spheres) was observed and photographed with an optical microscope on the 5th and 7th days after a single drug treatment at the start of culture. […]

[3] = SNU449T7, given concentrations, 24 hours (FIG. 2)
[4] = single treatment at 5 µM at start of culture, observed 5th and 7th days (FIG. 3b)
[5] = 0.1 or 1.0 µM, observed 10th day (FIG. 10c)
[6] = 0.5 or 2.5 µM, observed 6th or 10th day (FIG. 10a, b)

## CC(=O)Nc1ccc(-c2cc(-c3ccc(O)cc3)no2)cc1 [ST-5-001, N-(4-(3-(4-hydroxyphenyl)isoxazole-5-yl)phenyl)acetamide]
[1]; 24 hours (FIG. 12d)
  phosphorylation of FAK, STAT3, c-Src, S6K1, Akt, and p27: inhibited
[2]
  survival/proliferation of the spheres: inhibited

## COc1ccc(-c2cc(-c3ccc(N)cc3)no2)cc1 [ST-1-025, 4-(5-(4-methoxyphenyl)isoxazole-3-yl)aniline]
[1]; [3]
  phosphorylation of FAK, c-Src, STAT3, and p27: decreased
[2]; repeated treatment at given concentrations on the 0, 5, and 6th days, observed 7th day (FIG. 3c)
  degree of sphere proliferation: inhibited by ST-1-025 in a concentration-dependent manner, albeit slightly
[2]; [4]
  degree of sphere proliferation: inhibited, albeit slightly

## Cc1ccc(S(=O)(=O)Nc2ccc(C(=O)/C=C/c3ccc(O)cc3)cc2)cc1 [TSAHC, 4'-(p-toluenesulfonylamino)-4-hydroxychalcone, reference compound]
[1]; 5 µM, 24 hours (FIG. 5a)
  phosphorylation of FAK, c-Src, STAT3, and p27: decreased
[1]; [3]
  phosphorylation of FAK, c-Src, STAT3, and p27: decreased
[1]; 24 hours (FIG. 5c)
  phosphorylation of FAK, c-Src, STAT3, p27, S6K1, and AKT: decreased in a drug concentration-dependent manner
[2]
  degree of cell proliferation (spheres): inhibited
[2]; [4]
  degree of sphere proliferation: inhibited, albeit slightly

## COc1ccc(-c2cc(-c3cccc(NC(C)=O)c3)no2)cc1 [ST-3-011, N-(3-(5-(4-methoxyphenyl)isoxazole-3-yl)phenyl)acetamide]
[1]; 5 µM
  phosphorylation of FAK, c-Src, STAT3, p27, S6K1, AKT, and STAT5: decreased
[1]; 24 hours (FIG. 9c)
  phosphorylation of FAK, c-Src, STAT3, p27, S6K1, and AKT: decreased in a concentration-dependent manner
[2]; [5]
  degree of three-dimensional cell proliferation: decreased
[2]; [6]
  degree of three-dimensional cell proliferation: inhibited

## COc1ccc(-c2cc(-c3ccc(NC(C)=O)cc3)no2)cc1 [ST-2-001, N-(4-(5-(4-methoxyphenyl)isoxazole-3-yl)phenyl)acetamide]
[1]; 5 µM, 24 hours (FIG. 5a)
  phosphorylation of FAK, c-Src, STAT3, and p27: decreased
[1]; 5 µM
  phosphorylation of FAK, c-Src, STAT3, p27, S6K1, AKT, and STAT5: decreased
[1]; 24 hours (FIG. 5c)
  phosphorylation of FAK, c-Src, STAT3, p27, S6K1, and AKT: decreased in a drug concentration-dependent manner
[1]; 24 hours (FIG. 9c)
  phosphorylation of FAK, c-Src, STAT3, p27, S6K1, and AKT: decreased in a concentration-dependent manner
[1]; 24 hours (FIG. 12a)
  phosphorylation of FAK, STAT3, c-Src, S6K1, Akt, and p27: inhibited in many cases including STAT3, S6K1, and FAK
[1]; 24 hours (FIG. 12d)
  phosphorylation of FAK, STAT3, c-Src, S6K1, Akt, and p27: inhibited
[2]
  degree of cell proliferation (spheres): inhibited
  cell proliferation inhibitory effect: strong
  survival/proliferation of the spheres: inhibited
[2]; [6]
  degree of three-dimensional cell proliferation: inhibited

## Cc1ccc(C(=O)Nc2ccc(-c3cc(-c4ccc(O)cc4)no3)cc2)cc1 [ST-5-002, N-(4-(3-(4-hydroxyphenyl)isoxazole-5-yl)phenyl)-4-methylbenzamide]
[1]; drug with improved purity (FIG. 12d)
  phosphorylation inhibitory efficacy: maintained and further improved
[1]; 24 hours (FIG. 12d)
  phosphorylation of FAK, STAT3, c-Src, S6K1, Akt, and p27: inhibited
[2]
  survival/proliferation of the spheres: inhibited

## CC(=O)Nc1ccc(-c2cc(-c3ccc(F)cc3)on2)cc1 [ST-3-006, N-(4-(5-(4-fluorophenyl)isoxazole-3-yl)phenyl)acetamide]
[1]; 5 µM
  phosphorylation of FAK, c-Src, STAT3, p27, S6K1, AKT, and STAT5: decreased
[1]; 24 hours (FIG. 9c)
  phosphorylation of FAK, c-Src, STAT3, p27, S6K1, and AKT: decreased in a concentration-dependent manner
[2]; [5]
  degree of three-dimensional cell proliferation: decreased
[2]
  cell proliferation inhibitory effect: strong
[2]; [6]
  degree of three-dimensional cell proliferation: inhibited

Source: patent publication EP4772500A1, “NOVEL ISOXAZOLE COMPOUND AS TM4SF5-SPECIFIC INHIBITOR AND USE THEREOF” (Seoul National University R&DB Foundation, priority 2023, dated 2025)
